Source: US20230099293A1, “OGA INHIBITOR COMPOUNDS” (priority 2019, published 2023)

What was measured:
[1] = target: T1, recombinant human Meningioma Expressed Antigen 5 (MGEA5), also referred to as O-GlcNAcase (OGA) (Homo sapiens, UniProt O60502); experiment: OGA biochemical assay (inhibition of FM-GlcNAc hydrolysis, fluorescence); conditions: for IC50: Enzymatic hOGA, pIC50, Table 5, full length OGA 2 nM, FM-GlcNAc 100 uM, 6 h at room temperature; for Emax: read-out: Enzymatic Emax (%)
T1 construct: Full length OGA enzyme was purchased at OriGene (cat #TP322411); purchased OriGene TP322411
T1 sequence (O60502 1-916): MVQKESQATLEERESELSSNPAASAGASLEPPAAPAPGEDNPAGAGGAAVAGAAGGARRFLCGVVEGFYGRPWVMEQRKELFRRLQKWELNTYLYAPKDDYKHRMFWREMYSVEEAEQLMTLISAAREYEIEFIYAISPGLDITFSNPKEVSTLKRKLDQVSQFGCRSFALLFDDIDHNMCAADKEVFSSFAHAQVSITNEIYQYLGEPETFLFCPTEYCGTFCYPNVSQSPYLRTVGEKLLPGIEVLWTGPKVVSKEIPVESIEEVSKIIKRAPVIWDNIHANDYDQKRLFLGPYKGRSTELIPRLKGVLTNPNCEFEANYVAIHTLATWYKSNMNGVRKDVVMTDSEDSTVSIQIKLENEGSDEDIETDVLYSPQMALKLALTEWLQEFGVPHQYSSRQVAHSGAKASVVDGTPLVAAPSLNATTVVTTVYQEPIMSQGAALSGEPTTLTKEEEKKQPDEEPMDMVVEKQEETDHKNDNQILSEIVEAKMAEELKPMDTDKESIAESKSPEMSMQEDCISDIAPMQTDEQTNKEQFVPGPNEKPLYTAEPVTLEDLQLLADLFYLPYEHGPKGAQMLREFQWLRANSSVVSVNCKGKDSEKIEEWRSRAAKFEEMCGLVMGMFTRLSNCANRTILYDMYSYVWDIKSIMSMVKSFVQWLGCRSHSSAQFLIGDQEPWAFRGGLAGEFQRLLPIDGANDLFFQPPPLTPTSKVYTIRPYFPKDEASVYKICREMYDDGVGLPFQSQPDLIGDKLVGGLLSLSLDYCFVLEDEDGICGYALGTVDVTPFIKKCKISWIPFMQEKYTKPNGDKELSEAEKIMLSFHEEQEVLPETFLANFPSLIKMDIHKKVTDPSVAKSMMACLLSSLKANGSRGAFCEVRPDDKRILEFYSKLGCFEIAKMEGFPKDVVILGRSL
Procedure: The hydrolysis FM-GlcNAc (Marker Gene technologies, cat #M1485) results in the formation of β-D-N-glucosamineacetate and fluorescein. The fluorescence of the latter can be measured at excitation wavelength 485 nm and emission wavelength 538 nm. An increase in enzyme activity results in an increase in fluorescence signal. Full length OGA enzyme was purchased at OriGene (cat #TP322411). The enzyme was stored in 25 mM Tris.HCl, pH 7.3, 100 mM glycine, 10% glycerol at −20° C. […] The assay was performed in 200 mM Citrate/phosphate buffer supplemented with 0.005% Tween-20. 35.6 g Na2HIPO42H2O (Sigma, #C0759) were dissolved in 1 L water to obtain a 200 mM solution. […] The buffer to stop the reaction consists of a 500 mM Carbonate buffer, pH 11.0. […] OGA was used at a 2 nM concentration and FM-GlcNAc at a 100 uM final concentration. Dilutions were prepared in assay buffer.
Plates were pre-incubated for 60 min at room temperature and then 2 μl FM-GlcNAc substrate mix added. […] Plates were briefly centrifuged for 1 min at 1000 rpm and incubate at room temperature for 6 h. To stop the reaction 5 μl STOP buffer were added and plates centrifuge again 1 min at 1000 rpm. Fluorescence was quantified in the Thermo Scientific Fluoroskan Ascent or the PerkinElmer EnVision with excitation wavelength 485 nm and emission wavelength 538 nm.
For analysis a best-fit curve is fitted by a minimum sum of squares method. From this an IC50 value and Hill coefficient was obtained. High control (no inhibitor) and low control (saturating concentrations of standard inhibitor) were used to define the minimum and maximum values.

hOGA = target: T2, hOGA (Homo sapiens, UniProt O60502); experiment: OGA cellular assay (ICC detection of O-GlcNAcylated proteins in HEK293 cells inducible for P301L mutant human Tau); format: cell-based; parameters: Emax: dose or concentration left out as unconfirmed; conditions: for EC50: Cellular hOGA, pEC50, Table 5, HEK293 P301L Tau cells, 6 hours incubation, O-GlcNAcylation readout; for Emax: HEK293, read-out: Cellular Emax (%)
T2 construct: endogenous in cells; host or cells: HEK293 cells inducible for P301L mutant human Tau (isoform 2N4R)
T2 sequence (O60502 1-916): T1 sequence (O60502 1-916)
Procedure: HEK293 cells inducible for P301L mutant human Tau (isoform 2N4R) were established at Janssen. Thiamet-G was used for both plate validation (high control) and as reference compound (reference EC50 assay validation). OGA inhibition is evaluated through the immunocytochemical (ICC) detection of O-GlcNAcylated proteins by the use of a monoclonal antibody (CTD110.6; Cell Signaling, #9875) detecting O-GlcNAcylated residues as previously described (Dorfmueller et al. 2010 Chemistry & biology, 17:1250). Inhibition of OGA will result in an increase of O-GlcNAcylated protein levels resulting in an increased signal in the experiment. Cell nuclei are stained with Hoechst to give a cell culture quality control and a rough estimate of immediate compounds toxicity, if any. ICC pictures are imaged with a Perkin Elmer Opera Phenix plate microscope and quantified with the provided software Perkin Elmer Harmony 4.1.
Cells were propagated in DMEM high Glucose (Sigma, #D5796) following standard procedures. 2 days before the cell assay cells are split, counted and seeded in Poly-D-Lysine (PDL) coated 96-wells (Greiner, #655946) plate at a cell density of 12,000 cells per cm^2 (4,000 cells per well) in 100 μl of Assay Medium (Low Glucose medium is used to reduce basal levels of GlcNAcylation) (Park et al. 2014 The Journal of biological chemistry 289:13519). At the day of compound test medium from assay plates was removed and replenished with 90 μl of fresh Assay Medium. 10 μl of compounds at a 10 fold final concentration were added to the wells. Plates were centrifuged shortly before incubation in the cell incubator for 6 hours. DMSO concentration was set to 0.2%. Medium is discarded by applying vacuum. For staining of cells medium was removed and cells washed once with 100 μl D-PBS (Sigma, #D8537). From next step onwards unless other stated assay volume was always 50 μl and incubation was performed without agitation and at room temperature. Cells were fixed in 50 μl of a 4% paraformaldehyde (PFA, Alpha aesar, #043368) PBS solution for 15 minutes at room temperature. […] Before analysis samples were washed 2 times manually for 5 minutes in ICC base buffer.
Imaging is performed using Perkin Elmer Phenix Opera using a water 20× objective and recording 9 fields per well. Intensity readout at 488 nm is used as a measure of O-GlcNAcylation level of total proteins in wells. To assess potential toxicity of compounds nuclei were counted using the Hoechst staining. IC50-values are calculated using parametric non-linear regression model fitting. As a maximum inhibition Thiamet Gat a 200 uM concentration is present on each plate. In addition, a concentration response of Thiamet G is calculated on each plate.

Cc1cc(Cl)cc(C)c1Nc1nccc2c1ncn2CC(=O)N(C)C [Compound 11]
IC50 [1]: 10 nM | Emax [1]: 99% | EC50 (hOGA): 209 nM | Emax (hOGA): 62% | melting point: 209.8 °C

Cc1cc(C(F)(F)F)cc(C(C)C)c1Nc1nccc2c1ncn2CC(=O)N(C)C [Compound 12]
IC50 [1]: 10.7 nM | Emax [1]: 101% | EC50 (hOGA): 46.8 nM | Emax (hOGA): 88% | melting point: 234.4 °C

Cc1cc2c(cnn2C)c(C)c1Nc1nccc2c1ncn2CC(=O)N(C)C [Compound 13]
IC50 [1]: 13.8 nM | Emax [1]: 98% | EC50 (hOGA): 69.2 nM | Emax (hOGA): 113% | melting point: 265.1 °C

Cc1ccnc(C(C)C)c1Nc1nccc2c1ncn2CC(=O)N(C)C [Compound 14]
IC50 [1]: 14.1 nM | Emax [1]: 100% | EC50 (hOGA): 427 nM | Emax (hOGA): 75% | melting point: 223.3 °C

Cc1cc(C(F)(F)F)cc(Cl)c1Nc1nccc2c1ncn2CC(=O)N(C)C [Compound 15]
IC50 [1]: 14.1 nM | Emax [1]: 98% | EC50 (hOGA): 204 nM | Emax (hOGA): 64% | melting point: 214.14 °C

Cc1cc(OC(F)(F)F)cc(Cl)c1Nc1nccc2c1ncn2CC(=O)N(C)C [Compound 16]
IC50 [1]: 13.5 nM | Emax [1]: 101% | EC50 (hOGA): 316 nM | Emax (hOGA): 66% | melting point: 182.81 °C

CN(C)C(=O)Cn1cnc2c(Nc3c(Cl)cc(C(F)(F)F)cc3Cl)nccc21 [Compound 17]
IC50 [1]: 16.2 nM | Emax [1]: 99% | EC50 (hOGA): 316 nM | Emax (hOGA): 77% | melting point: 238.4 °C

Cc1ccc(C(F)(F)F)c(C)c1Nc1nccc2c1ncn2CC(=O)N(C)C [Compound 18]
IC50 [1]: 16.2 nM | Emax [1]: 99% | EC50 (hOGA): 631 nM | Emax (hOGA): 56% | melting point: 250 °C

Cc1cc(C)c(Nc2nccc3c2ncn3CC(=O)N(C)C)c(C)c1 [Compound 19]
IC50 [1]: 20 nM | Emax [1]: 98% | EC50 (hOGA): 537 nM | Emax (hOGA): 62% | melting point: 270.2 °C

Cc1cc(F)cc(C)c1Nc1nccc2c1ncn2CC(=O)N(C)C [Compound 20]
IC50 [1]: 18.6 nM | Emax [1]: 98% | EC50 (hOGA): 170 nM | Emax (hOGA): 83% | melting point: 216.7 °C

CN(C)C(=O)Cn1cnc2c(Nc3c(Cl)cc(F)cc3Cl)nccc21 [Compound 21]
IC50 [1]: 30.9 nM | Emax [1]: 95% | EC50 (hOGA): 123 nM | Emax (hOGA): 69% | melting point: 243.4 °C

Cc1cc(-c2cnn(C)c2)cc(C(C)C)c1Nc1nccc2c1ncn2CC(=O)N(C)C [Compound 22]
IC50 [1]: 41.7 nM | Emax [1]: 98% | EC50 (hOGA): > 1000 nM | Emax (hOGA): 31% | melting point: 234.4 °C

Cc1cc(C(F)(F)F)nc(C)c1Nc1nccc2c1ncn2CC(=O)N(C)C [Compound 23]
IC50 [1]: 45.7 nM | Emax [1]: 99% | EC50 (hOGA): 1020 nM | Emax (hOGA): 51% | melting point: 233.3 °C

CN(C)C(=O)Cn1cnc2c(Nc3c(Cl)cc(F)cc3C(F)(F)F)nccc21 [Compound 24]
IC50 [1]: 45.7 nM | Emax [1]: 96% | EC50 (hOGA): 398 nM | Emax (hOGA): 82% | melting point: 219.9 °C

Cc1cc(C(F)(F)F)cc(F)c1Nc1nccc2c1ncn2CC(=O)N(C)C [Compound 25]
IC50 [1]: 135 nM | Emax [1]: 96% | EC50 (hOGA): > 1000 nM | Emax (hOGA): 29% | melting point: 226.6 °C

Cc1nccc(C(F)F)c1Nc1nccc2c1ncn2CC(=O)N(C)C [Compound 27]
IC50 [1]: 372 nM | Emax [1]: 89% | EC50 (hOGA): > 1000 nM | Emax (hOGA): 18% | melting point: 216.6 °C

CN(C)C(=O)Cn1cnc2c(Nc3ccc(F)cc3C(F)(F)F)nccc21 [Compound 29]
IC50 [1]: 1000 nM | Emax [1]: 100% | EC50 (hOGA): > 200 nM | Emax (hOGA): 2% | melting point: 246.7 °C

Cc1cc2c(ncn2CC(=O)N(C)C)c(Nc2c(C)cc(C(F)(F)F)cc2C)n1 [Compound 30]
IC50 [1]: 5890 nM | Emax [1]: 55% | EC50 (hOGA): > 1000 nM | Emax (hOGA): 12% | melting point: 188.2 °C

CC(C)c1cc(C(F)(F)F)cc(F)c1Nc1nccc2c1ncn2CC(=O)N(C)C [Compound 31]
IC50 [1]: 87.1 nM | Emax [1]: 104% | EC50 (hOGA): > 1000 nM | Emax (hOGA): 36% | melting point: 191.4 °C

Cc1nn(-c2ccc(F)cn2)c(C)c1Nc1nccc2c1ncn2CC(=O)N(C)C [Compound 32]
IC50 [1]: 174 nM | Emax [1]: 100% | EC50 (hOGA): > 1000 nM | Emax (hOGA): 34% | melting point: 256.6 °C

Cc1nn(-c2cccc(C#N)c2)c(C)c1Nc1nccc2c1ncn2CC(=O)N(C)C [Compound 33]
IC50 [1]: 20.4 nM | Emax [1]: 97% | EC50 (hOGA): 479 nM | Emax (hOGA): 63% | melting point: 239.9 °C

Cc1nn(-c2cccc(F)c2)c(C)c1Nc1nccc2c1ncn2CC(=O)N(C)C [Compound 34]
IC50 [1]: 36.3 nM | Emax [1]: 99% | EC50 (hOGA): 562 nM | Emax (hOGA): 54% | melting point: 181.5 °C

Cc1cc(C(F)(F)F)cc(C)c1Nc1ncc(F)c2c1ncn2CC(=O)N(C)C [Compound 35]
IC50 [1]: 178 nM | Emax [1]: 96% | EC50 (hOGA): > 1000 nM | Emax (hOGA): 25% | melting point: 236.7 °C

COc1cccc(-n2nc(C)c(Nc3nccc4c3ncn4CC(=O)N(C)C)c2C)c1 [Compound 36]
IC50 [1]: 29.5 nM | Emax [1]: 101% | EC50 (hOGA): 603 nM | Emax (hOGA): 55% | melting point: 179.7 °C
